Results reported in patent publication EP0257993B1, “Nucleic acid fragment encoding herbicide resistant plant acetolactate synthase” (priority 1986, dated 1988).

Experiments:
[1] = tested on: Hra mutant plants; assay: Foliar application to Hra mutant plants; assay type: in vivo, Nicotiana tabacum
[2] = tested on: progeny of tobacco transformants; assay: Progeny test of seeds on SG medium with herbicide; assay type: in vivo, Nicotiana tabacum CV.NK326 or K14
Experimental: (§1) Approximately 1-2 weeks late shoots developing on kanamycin-selected explants were excised with a sterile scalpel and planted in A medium containing 100 mg/l kanamycin. Root formation on selective and non-selective media was recorded within 3 weeks. Shoots which rooted in kanamycin were transferred to soil and grown in a growth chamber as described above. After 3 to 5 weeks, but before flowering had occurred, leaf tissue was excised and used for ALS assays as described in Example VI. […] Individual flowers were bagged to permit self-fertilization without cross-pollination. Mature seeds were harvested and progeny tests were conducted to determine inheritance of the herbicide resistance trait. Seeds were surface sterilized as described above, dried and planted on SG medium (1/4 MS salts, 0.75% sucrose, 0.8% Agar) in the presence or absence of herbicide (DPX-F6025, Classic®). […] A segregration ratio of 3 resistant progeny to 1 sensitive indicated the presence of a single-site insertion of the SURB-Hra gene in the trasnformant which was stably inherited. […] Higher ratios of resistant to sensitive progeny indicated multiple insertions at unlinked positions in the genome. The 15/1 ratio indicates the presence of 2 unlinked SURB-Hra genes and 255/1 ratio indicates 4 unlinked SURB-Hra genes in the transformants K14 #40 and K14 #7, respectively.

[3] = tested on: ALS; assay: ALS assay of leaf extracts, wild type tobacco; assay type: biochemical, Nicotiana tabacum CV.NK326 or K14; conditions: DPX-F6025 at 10ppb, activity without herbicide = 100 percent
Experimental: as §1
Keep on ice. • 2. […] Read at OD 530.

[4] = tested on: ALS; assay: ALS assay of leaf extracts, wild-type tomato; assay type: biochemical, Lycopersicon esculentum var. Herbst Red Cherry
Experimental: After approximately 2-4 weeks, shoots developing off of kanamycin-selected cotyledons were excised and planted in OMS media containing 500 mg/L cefotaxime and 100 mg/L kanamycin. Tomato shoots which rooted in kanamycin after about 2-3 weeks were transferred to soil in 8" pots and covered with plastic bags. The plants were grown under mixed fluorescent and incandescent lights for a 12 hr, 24°C day; 12 hr, 20°C night cycle, with approximately 80% relative humidity, for one week before removing the plastic bags. The plants were grown for another 2-4 weeks before performing ALS assays. […]
Keep on ice. • 2. […] 16K rpm, 4°C. • 4. […] Incubate on ice for 30 minutes. • 6. […] Decant supernatant. • 7. Resuspend pellet in 1 ml cold column buffer. • 8. […] Let this run through column. • 9. Elute proteins with 2X volume of extract loaded. […] Incubate reaction for 1 hour, 30°C. • 12. […] Spin in microfuge 5 minutes. • 13. […] Read at OD 530.

[5] = tested on: tobacco callus; assay: Growth of tobacco mutant callus (C3, S4, Hra) on herbicide; assay type: cell-based, Nicotiana tabacum var. Xanthi
Experimental: (§2) Callus cultures of sensitive tobacco (Nicotiana tabacum var. Xanthi) were exposed to sulfometuron methyl at 2 ppb according to the method described by Chaleff, U.S. 4,443,971. […] Plants were regenerated from Hra callus cultures. […] ALS activity in extracts of leaves of wild type and homozygous Hra mutant tobacco plants was determined.

[6] = tested on: ALS; assay type: biochemical, Nicotiana tabacum; conditions: C3 and S4 lines
Experimental: as §2

CC(C)C1(C)N=C(c2ncccc2C(=O)O)NC1=O.CC(C)N (stereo not drawn)
cross resistance to foliar application [1]: cross resistant

6-(4-isopropyl-4-methyl-5-oxo-2-imidazolin-2-yl)-m-toluic acid and p-toluic acid, methyl esters
cross resistance to foliar application [1]: cross resistant

COc1nc(C)nc(NC(=O)NS(=O)(=O)c2ccccc2OCCCl)n1 [2-(2-chloroethoxy)-N-[(4-methoxy-6-methyl-1,3,5-triazin-2-yl)aminocarbonyl]benzenesulfonamide]
cross resistance to foliar application [1]: cross resistant

CC(C)C1(C)N=C(c2nc3ccccc3cc2C(=O)O)NC1=O (stereo not drawn) [2-[4,5-dihydro-4-methyl-4-(1-methylethyl)-5-oxo-1H-imidazol-2-yl]-3-quinolinecarboxylic acid]
cross resistance to foliar application [1]: cross resistant

COC(=O)c1ccccc1S(=O)(=O)NC(=O)Nc1nc(C)cc(C)n1 [2-[[(4,6-dimethylpyrimidin-2-yl)aminocarbonyl]aminosulfonyl]benzoic acid, methyl ester]
cross resistance to foliar application [1]: cross resistant

CCOC(=O)c1ccccc1S(=O)(=O)NC(=O)Nc1nc(Cl)cc(OC)n1 [2-[[(4-chloro-6-methoxypyrimidin-2-yl)aminocarbonyl]aminosulfonyl]benzoic acid, ethyl ester]
cross resistance to foliar application [1]: cross resistant

COC(=O)c1c(C)cccc1S(=O)(=O)NC(=O)Nc1nc(C)cc(OC)n1 [2-[[(4-methoxy-6-methylpyrimidin-2-yl)aminocarbonyl]aminosulfonyl]-6-methylbenzoic acid, methyl ester]
cross resistance to foliar application [1]: cross resistant

COc1nc(C)nc(NC(=O)NS(=O)(=O)c2ccccc2Cl)n1 [2-chloro-N-[(4-methoxy-6-methyl-1,3,5-triazin-2-yl)aminocarbonyl]benzenesulfonamide]
cross resistance to foliar application [1]: cross resistant

Cc1cc(C)n2nc(S(=O)(=O)Nc3c(C)cccc3[N+](=O)[O-])nc2n1 [5,7-dimethyl-N-(2-methyl-6-nitrophenyl)[1,2,4]triazolo[1,5-A]pyrimidin-2-sulfonamide]
cross resistance to foliar application [1]: cross resistant

CCC1C=NC(C2=NC(C)(C(C)C)C(=O)N2)=C(C(=O)O)C1 (stereo not drawn) [5-ethyl-4,5-dihydro-2-[4-methyl-4-(1-methylethyl)-5-oxo-1H-imidazol-2-yl]-3-pyridinecarboxylic acid]
cross resistance to foliar application [1]: cross resistant

COc1cc(OC)nc(NC(=O)NS(=O)(=O)c2c(Cl)ccc3c2S(=O)(=O)N(C)CC3)n1 [7-chloro-N-[(4,6-dimethoxypyrimidin-2-yl)aminocarbonyl]-3,4-dihydro-2-methyl-2H-1,2-benzothiazine-8-sulfonamide, S,S-dioxide]
cross resistance to foliar application [1]: cross resistant

CCOC(=O)c1ccccc1S(=O)(=O)NC(=O)Nc1nc(Cl)cc(OC)n1 [DPX-F6025]
Progeny Resistant/Sensitive ([2]; K14 #7, 100ppb DPX-F6025): 990/4 | Progeny Resistant/Sensitive ([2]; K14 #7, 1000bbp DPX-F6025): 109/1 | Progeny Resistant/Sensitive ([2]; K14 #11, 100ppb DPX-F6025): 208/85 | Progeny Resistant/Sensitive ([2]; K14 #11, 1000bbp DPX-F6025): 127/76 | Progeny Resistant/Sensitive ([2]; K14 #27, 100ppb DPX-F6025): 129/45 | Progeny Resistant/Sensitive ([2]; K14 #27, 1000bbp DPX-F6025): 108/42 | Progeny Resistant/Sensitive ([2]; K14 #29, 100ppb DPX-F6025): 192/46 | Progeny Resistant/Sensitive ([2]; K14 #29, 1000bbp DPX-F6025): 163/67 | Progeny Resistant/Sensitive ([2]; K14 #32c, 100ppb DPX-F6025): 140/65 | Progeny Resistant/Sensitive ([2]; K14 #32c, 1000bbp DPX-F6025): 63/86 | Progeny Resistant/Sensitive ([2]; K14 #40, 100ppb DPX-F6025): 218/18 | Progeny Resistant/Sensitive ([2]; K14 #40, 1000bbp DPX-F6025): 212/26 | Progeny Resistant/Sensitive ([2]; K14 #41, 100ppb DPX-F6025): 255/35 | Progeny Resistant/Sensitive ([2]; K14 #41, 1000bbp DPX-F6025): 296/74 | Progeny Resistant/Sensitive ([2]; K14 #42, 100ppb DPX-F6025): 162/74 | Progeny Resistant/Sensitive ([2]; K14 #42, 1000bbp DPX-F6025): 77/72 | Progeny Resistant/Sensitive ([2]; K14 #53, 100ppb DPX-F6025): 130/59 | Progeny Resistant/Sensitive ([2]; K14 #53, 1000bbp DPX-F6025): 149/139 | Progeny Resistant/Sensitive ([2]; K14 #54A, 100ppb DPX-F6025): 137/55 | Progeny Resistant/Sensitive ([2]; K14 #54A, 1000bbp DPX-F6025): 100/72 | Progeny Resistant/Sensitive ([2]; K24 #31, 100ppb DPX-F6025): 106/35 | Progeny Resistant/Sensitive ([2]; K24 #31, 1000bbp DPX-F6025): 99/34 | Progeny Resistant/Sensitive ([2]; NK326 #9c, 100ppb DPX-F6025): 163/49 | Progeny Resistant/Sensitive ([2]; NK326 #9c, 1000bbp DPX-F6025): 99/63 | Progeny Resistant/Sensitive ([2]; NK326 #10, 100ppb DPX-F6025): 93/31 | Progeny Resistant/Sensitive ([2]; NK326 #10, 1000bbp DPX-F6025): 96/24 | Progeny Resistant/Sensitive ([2]; NK326 #10c, 100ppb DPX-F6025): 333/45 | Progeny Resistant/Sensitive ([2]; NK326 #10c, 1000bbp DPX-F6025): 290/76 | Progeny Resistant/Sensitive ([2]; NK326 #9d, 100ppb DPX-F6025): 288/67 | Progeny Resistant/Sensitive ([2]; NK326 #9d, 1000bbp DPX-F6025): 150/58 | Progeny Resistant/Sensitive ([2]; X14 #54, 100ppb DPX-F6025): 99/38 | Progeny Resistant/Sensitive ([2]; X14 #54, 1000bbp DPX-F6025): 92/43 | Progeny Resistant/Sensitive ([2]; nk326 #1, 100ppb DPX-F6025): 98/37 | Progeny Resistant/Sensitive ([2]; nk326 #1, 1000bbp DPX-F6025): 90/35 | % Unhibited ALS Activity ([3]; K14 wT): 7% | % Unhibited ALS Activity ([3]; NK326(wT)): 7% | Percent Uninhibited ALS Activity ([4]; 10ppb): 15% | Percent Uninhibited ALS Activity ([4]; 100ppb): 5% | Percent Uninhibited ALS Activity ([4]; 1000ppb): 4%

Cc1cc(C)n2nc(S(=O)(=O)Nc3c(Cl)cccc3Cl)nc2n1 [N-(2,6-dichlorphenyl)-5,7-dimethyl[1,2,4]triazolo [1,5-A]pyrimidin-2-sulfonamide]
cross resistance to foliar application [1]: cross resistant

Cc1cc(C)n2nc(S(=O)(=O)Nc3c(C)cccc3Cl)nc2n1 [N-(2-chloro-6-methylphenyl)-5,7-dimethyl[1,2,4]triazolo[1,5-A]pyrimidin-2-sulfonamide]
cross resistance to foliar application [1]: cross resistant

COc1cc(OC)nc(NC(=O)NS(=O)(=O)c2cccc3c2S(=O)(=O)C(C)C3)n1 (stereo not drawn) [N-[(4,6-dimethoxypyrimidin-2-yl)aminocarbonyl]-2,3-dihydro-2-methylbenzo[β]thiophene-7-sulfonamide, 1,1-dioxide]
cross resistance to foliar application [1]: cross resistant

COC(=O)c1ccccc1S(=O)(=O)NC(=O)Nc1nc(C)cc(C)n1 [sulfometuron methyl]
selective herbicide resistance conferred by the mutation ([5]; C3 cell line (SURA-C3, proline-to-glutamine at position 197)): conferred resistance | tolerated concentrations compared with that required to completely inhibit the growth of wild type callus ([5]; Hra cell line): one thousand times greater | selective concentration which completely inhibits the growth ([5]; S4 cell line): 200 ppb | resistance of ALS enzyme activity compared with ALS from wild type [6]: one-hundred fold
